19 compounds from patent publication US9198420B2, “Rodenticidal norbormide analogues” (priority 2012, dated 2015) can be followed below.

The structures appear in SMILES notation.

One experiment relates to rat caudal artery. As to the kind of experiment: Rat caudal artery ring contractile force (vasoconstrictory activity). The arrangement: species or system rat (male Wistar). Conditions: Table 1, compound at 50 μM. As for the experimental part:
Male Wistar rats (150-250 g) were obtained from Charles River Italia (Milano, Italy) and killed by decapitation. Ventral caudal artery was isolated, placed in Tyrode solution at room temperature and cleaned of extraneous fatty and connective tissue under a dissection microscope. All vessels were cut into rings 2 mm long, mounted on a custom-built plexiglass support by means of two intraluminal tungsten wires and placed in 20 mL double-jacketed organ baths filled with Tyrode solution of the following composition (mM): NaCl 125, KCl 5, CaCl2 2.7, MgSO4 1, KH2PO4 1.2, NaHCO3 25 and glucose 11, maintained at 37° C., pH 7.35, bubbled with 95% O2 and […]. The endothelium was removed by gently rubbing the lumen of the rings with a very thin rough-surfaced tungsten wire (caudal artery). The mechanical activity of the rings was detected by means of an isometric force transducer (Ugo Basile, Comerio, Italy) coupled to a pen recorder (Ugo Basile, Comerio, Italy). Rings were passively stretched to impose a resting tension (2 g) and were allowed to equilibrate for 60 min. After equilibration, each ring was repeatedly simulated with both KCl (90 mM) and phenylephrine (10 μM) until reproducible responses were obtained. To verify the absence of the endothelium, rings contracted with 1 μM phenylephrine were exposed to […] carbamylcholine. […] Each compound was tested for the vasoconstrictor activity at a concentration of 50 μM, which has been previously reported to be the one evoking the maximal response to norbormide. The contractile responses to the compounds were expressed as percent of the 90 mM KCl response.
As to `CC(C)(C)C(=O)OCCN1C(=O)C2C3C=C(C(O)(c4ccccc4)c4ccccn4)C(C3=C(c3ccccc3)c3ccccn3)C2C1=O` (stereo not drawn) [Compound 109, 5-(α-Hydroxy-α-2-pyridylbenzyl)-N-2′-pivaloyloxyethyl-7-(α-2-pyridylbenzylidene)-5-norbornene-2,3-dicarboximide], the “Vasoconstriction: maximum contractile effect as a % of 90 mM KCl contraction” value is listed as “≧132%”. As to `CCCC(=O)OCCN1C(=O)C2C3C=C(C(O)(c4ccccc4)c4ccccn4)C(C3=C(c3ccccc3)c3ccccn3)C2C1=O` (stereo not drawn) [Compound 110, N-2′-Butanoyloxyethyl-5-(α-hydroxy-α-2-pyridylbenzyl)-7-(α-2-pyridylbenzylidene)-5-norbornene-2,3-dicarboximide], the “Vasoconstriction: maximum contractile effect as a % of 90 mM KCl contraction” value is given as “≧132%”. `O=C(OCCN1C(=O)C2C3C=C(C(O)(c4ccccc4)c4ccccn4)C(C3=C(c3ccccc3)c3ccccn3)C2C1=O)c1ccccc1` (stereo not drawn) [Compound 113, N-2′-Benzoyloxyethyl-5-(α-hydroxy-α-2-pyridylbenzyl)-7-(α-2-pyridylbenzylidene)-5-norbornene-2,3-dicarboximide]: the “Vasoconstriction: maximum contractile effect as a % of 90 mM KCl contraction” value was “≧132%”. With `COc1ccccc1C(=O)OCCN1C(=O)C2C3C=C(C(O)(c4ccccc4)c4ccccn4)C(C3=C(c3ccccc3)c3ccccn3)C2C1=O` (stereo not drawn) [Compound 114, 5-(α-Hydroxy-α-2-pyridylbenzyl)-N-2′-o-methoxybenzoyloxyethyl-7-(α-2-pyridylbenzylidene)-5-norbornene-2,3-dicarboximide], the “Vasoconstriction: maximum contractile effect as a % of 90 mM KCl contraction” value is given as “≧132%”. In the case of `COc1cccc(C(=O)OCCN2C(=O)C3C4C=C(C(O)(c5ccccc5)c5ccccn5)C(C4=C(c4ccccc4)c4ccccn4)C3C2=O)c1` (stereo not drawn) [Compound 115, 5-(α-Hydroxy-α-2-pyridylbenzyl)-N-2′-m-methoxybenzoyloxyethyl-7-(α-2-pyridylbenzylidene)-5-norbornene-2,3-dicarboximide], the “Vasoconstriction: maximum contractile effect as a % of 90 mM KCl contraction” value stood at 52%.

Regarding `COc1ccc(C(=O)OCCN2C(=O)C3C4C=C(C(O)(c5ccccc5)c5ccccn5)C(C4=C(c4ccccc4)c4ccccn4)C3C2=O)cc1` (stereo not drawn) [Compound 116, 5-(α-Hydroxy-α-2-pyridylbenzyl)-N-2′-p-methoxybenzoyloxyethyl-7-(α-2-pyridylbenzylidene)-5-norbornene-2,3-dicarboximide], the “Vasoconstriction: maximum contractile effect as a % of 90 mM KCl contraction” value is given as “≧132%”. Regarding `O=C(Cc1ccccc1)OCCN1C(=O)C2C3C=C(C(O)(c4ccccc4)c4ccccn4)C(C3=C(c3ccccc3)c3ccccn3)C2C1=O` (stereo not drawn) [Compound 117, 5-(α-Hydroxy-α-2-pyridylbenzyl)-N-2′-phenylacetyloxyethyl-7-(α-2-pyridylbenzylidene)-5-norbornene-2,3-dicarboximide], the “Vasoconstriction: maximum contractile effect as a % of 90 mM KCl contraction” value is “≧132%”. Regarding `O=C(CCc1ccccc1)OCCN1C(=O)C2C3C=C(C(O)(c4ccccc4)c4ccccn4)C(C3=C(c3ccccc3)c3ccccn3)C2C1=O` (stereo not drawn) [Compound 119, N-2′-Dihydrocinnamoyloxyethyl-5-(α-hydroxy-α-2-pyridylbenzyl)-7-(α-2-pyridylbenzylidene)-5-norbornene-2,3-dicarboximide], the “Vasoconstriction: maximum contractile effect as a % of 90 mM KCl contraction” value was “≧132%”. Turning to `COc1cccc(C=CC(=O)OCCN2C(=O)C3C4C=C(C(O)(c5ccccc5)c5ccccn5)C(C4=C(c4ccccc4)c4ccccn4)C3C2=O)c1` (stereo not drawn) [Compound 125, 5-(α-1-hydroxy-α-2-pyridylbenzyl)-N-[2′-(3″-methoxycinnamoyloxy)ethyl]-7-(α-2-pyridylbenzylidene)-5-norbornene-2,3-dicarboximide], the “Vasoconstriction: maximum contractile effect as a % of 90 mM KCl contraction” value was found to be 80%. `Cc1ccc(C=CC(=O)OCCN2C(=O)C3C4C=C(C(O)(c5ccccc5)c5ccccn5)C(C4=C(c4ccccc4)c4ccccn4)C3C2=O)cc1` (stereo not shown) [Compound 128]: the “Vasoconstriction: maximum contractile effect as a % of 90 mM KCl contraction” value was determined as 42%. The same measure, in the same setting: the value for `CN(C)c1ccc(C=CC(=O)OCCN2C(=O)C3C4C=C(C(O)(c5ccccc5)c5ccccn5)C(C4=C(c4ccccc4)c4ccccn4)C3C2=O)cc1` (stereo not shown) [Compound 131] was 30%; that for `COc1ccc(C=CC(=O)OCCN2C(=O)C3C4C=C(C(O)(c5ccccc5)c5ccccn5)C(C4=C(c4ccccc4)c4ccccn4)C3C2=O)cc1OC` (stereo not shown) [Compound 132] was 120%. As for `O=C(/C=C/C=C/c1ccccc1)OCCN1C(=O)C2C3C=C(C(O)(c4ccccc4)c4ccccn4)C(C3=C(c3ccccc3)c3ccccn3)C2C1=O` (stereo not drawn) [Compound 187, 5-(α-Hydroxy-α-2-pyridylbenzyl)-N-[2′-(5″-phenyl-2″E,4″E-pentadienoyloxy)ethyl]-7-(α-2-pyridylbenzylidene)-5-norbornene-2,3-dicarboximide], the “Vasoconstriction: maximum contractile effect as a % of 90 mM KCl contraction” value turned out to be 0%. For `O=C(C=Cc1ccc2ccccc2c1)OCCN1C(=O)C2C3C=C(C(O)(c4ccccc4)c4ccccn4)C(C3=C(c3ccccc3)c3ccccn3)C2C1=O` (stereo not drawn) [Compound 188, 5-(α-Hydroxy-α-2-pyridylbenzyl)-N-[2′-(2″-naphthylacryloyloxy)ethyl]-7-(α-2-pyridylbenzylidene)-5-norbornene-2,3-dicarboximide], the “Vasoconstriction: maximum contractile effect as a % of 90 mM KCl contraction” value is on record as 0%. Consider `O=C(CCC(=O)Oc1ccccc1)OCCN1C(=O)C2C3C=C(C(O)(c4ccccc4)c4ccccn4)C(C3=C(c3ccccc3)c3ccccn3)C2C1=O` (stereo not drawn) [Compound 204, 5-(α-Hydroxy-α-2-pyridylbenzyl)-N-2′-(monophenyl)succinoyloxyethyl-7-(α-2-pyridylbenzylidene)-5-norbornene-2,3-dicarboximide], for which the “Vasoconstriction: maximum contractile effect as a % of 90 mM KCl contraction” value came to 0%.

The experiment is the same for the next values; noted with them: Table 1, read-out: Vasoconstriction: maximum contractile effect as a % of 90 mM KCl contraction.
As to `CCCCCCCCCCCC(=O)OCN1C(=O)C2C3C=C(C(O)(c4ccccc4)c4ccccn4)C(C3=C(c3ccccc3)c3ccccn3)C2C1=O` (stereo not drawn) [Compound 11, N-Dodecanoyloxymethyl-5-(α-hydroxy-α-2-pyridylbenzyl)-7-(α-2-pyridylbenzylidene)-5-norbornene-2,3-dicarboximide], the Emax stood at 0%.

`O=C(OCOCCN1C(=O)C2C3C=C(C(O)(c4ccccc4)c4ccccn4)C(C3=C(c3ccccc3)c3ccccn3)C2C1=O)C(c1ccccc1)c1ccccc1` (stereo not drawn) [Compound 201, N-[2′-(Diphenylacetyloxymethyloxy)ethyl]-5-(α-hydroxy-α-2-pyridylbenzyl)-7-(α-2-pyridylbenzylidene)-5-norbornene-2,3-dicarboximide]: the Emax is no less than 132%.

Still in this experiment, the particulars now being: Table 4, pre-cleavage, n = 3.
Turning to `CCCCCCCCCCCC(=O)OCN1C(=O)C2C3C=C(C(O)(c4ccccc4)c4ccccn4)C(C3=C(c3ccccc3)c3ccccn3)C2C1=O` (stereo not drawn) [Compound 11, N-Dodecanoyloxymethyl-5-(α-hydroxy-α-2-pyridylbenzyl)-7-(α-2-pyridylbenzylidene)-5-norbornene-2,3-dicarboximide], the “Vasoconstriction: maximum contractile effect as a % of 90 mM KCl contraction” value is listed as 0%.

The same experiment, now with this note: Table 7, compounds of formula (V).
`CC(O)CN1C(=O)C2C3C=C(C(O)(c4ccccc4)c4ccccn4)C(C3=C(c3ccccc3)c3ccccn3)C2C1=O` (stereo not drawn) [Compound 103, N-2′-Hydroxypropyl-5-(α-hydroxy-α-2-pyridylbenzyl)-7-(α-2-pyridylbenzylidene)-5-norbornene-2,3-dicarboximide]: the “Vasoconstriction: maximum contractile effect as a % of 90 mM KCl contraction” value was 67%. Turning to `O=C1C2C3C=C(C(O)(c4ccccc4)c4ccccn4)C(C3=C(c3ccccc3)c3ccccn3)C2C(=O)N1CCCCO` (stereo not drawn) [Compound 105, N-4′-Hydroxybutyl-5-(α-hydroxy-α-2-pyridylbenzyl)-7-(α-2-pyridylbenzylidene)-5-norbornene-2,3-dicarboximide], the “Vasoconstriction: maximum contractile effect as a % of 90 mM KCl contraction” value is given as 100%.

Still in this experiment, the particulars now being: n = 3, Table 8.
As to `CC(O)CN1C(=O)C2C3C=C(C(O)(c4ccccc4)c4ccccn4)C(C3=C(c3ccccc3)c3ccccn3)C2C1=O` (stereo not drawn) [Compound 103, N-2′-Hydroxypropyl-5-(α-hydroxy-α-2-pyridylbenzyl)-7-(α-2-pyridylbenzylidene)-5-norbornene-2,3-dicarboximide], the “Vasoconstriction: maximum contractile effect as a % of 90 mM KCl contraction” value was determined as 67%. In the case of `O=C1C2C3C=C(C(O)(c4ccccc4)c4ccccn4)C(C3=C(c3ccccc3)c3ccccn3)C2C(=O)N1CCCCO` (stereo not drawn) [Compound 105, N-4′-Hydroxybutyl-5-(α-hydroxy-α-2-pyridylbenzyl)-7-(α-2-pyridylbenzylidene)-5-norbornene-2,3-dicarboximide], the “Vasoconstriction: maximum contractile effect as a % of 90 mM KCl contraction” value is listed as 100%.
